Laboratory results as given in ChEMBL document CHEMBL1201862, “PubChem BioAssay data set” (2004).
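How tested: cells in 96-well plates exposed to compound for 48 hours at five concentrations. Abbreviation: GI50, concentration required for 50% inhibition of growth.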 Activity calls are given as the source filed them. No stated cut-off is given here; in the data, active = GI50 up to about 1.1 µM and inactive = higher.

Experiments:
Assay in all cases: DTP human tumour cell line panel, 48 h
DLD-1 = test system: DLD-1
DMS-114 = test system: DMS-114
DMS-273 = test system: DMS-273
HOP-18 = test system: HOP-18
M19-MEL = test system: M19-MEL
SNB-78 = test system: SNB-78
XF498 = test system: XF498
LXFL 529 = test system: LXFL 529
RXF 631 = test system: RXF 631

SMILES | GI50 (DLD-1) | GI50 (DMS-114) | GI50 (DMS-273) | GI50 (HOP-18) | GI50 (M19-MEL) | GI50 (SNB-78) | GI50 (XF498) | GI50 (LXFL 529) | GI50 (RXF 631)
N/C(=N\O)N/N=C\c1c2ccccc2c(Cl)c2ccccc12 | 5.79 µM (inactive) | 3.19 µM (inactive) | 1.98 µM (inactive) | 2.45 µM (inactive) | 6.61 µM (inactive) | 12 µM (inactive) | 16.8 µM (inactive) | – | –
O=C1O/C(=C(/c2ccc(Cl)cc2)c2nc3ccccc3[nH]2)C(O)=C1c1ccc(Cl)cc1 | 3.05 µM (inactive) | 1.24 µM (inactive) | 2.08 µM (inactive) | 2.09 µM (inactive) | – | 4 µM (inactive) | – | 2.65 µM (inactive) | 0.891 µM (active)
CCOC(=O)Nc1ccc(S(=O)(=O)I)cc1.CCOC(=O)Nc1ccc(S(=O)(=O)I)cc1.CNC(=O)N=O.NC(=O)OCCCl | > 100 µM (inactive) | > 100 µM (inactive) | – | – | – | > 100 µM (inactive) | > 100 µM (inactive) | > 100 µM (inactive) | > 100 µM (inactive)
CC(=O)NN1C(=O)C(Cc2ccccc2)c2ccccc21 (stereo unspecified) | > 100 µM (inactive) | > 100 µM (inactive) | > 100 µM (inactive) | > 100 µM (inactive) | > 100 µM (inactive) | > 100 µM (inactive) | > 100 µM (inactive) | – | > 100 µM (inactive)
CCOC(=O)/C(=C\c1ccc(O)c(OC)c1)C(=O)c1ccccc1 | 17.8 µM (inactive) | – | – | 38.9 µM (inactive) | 20.8 µM (inactive) | 2.56 µM (inactive) | 27.6 µM (inactive) | 10.6 µM (inactive) | –
COC(=O)C1=C(SC)SC2(C(=O)OC)C3C=C(C)C4C(N13)C42C(=O)OC (stereo unspecified) | > 100 µM (inactive) | > 100 µM (inactive) | > 100 µM (inactive) | – | > 100 µM (inactive) | – | – | > 100 µM (inactive) | –
COc1ccc(C(=O)O/N=C2/CCC/C2=C\c2ccccc2)cc1 | > 100 µM (inactive) | > 100 µM (inactive) | > 100 µM (inactive) | > 100 µM (inactive) | > 100 µM (inactive) | > 68.5 µM (inactive) | > 100 µM (inactive) | > 100 µM (inactive) | > 100 µM (inactive)
C=CCNC(=O)ON1C(=O)CCC1=O | > 100 µM (inactive) | > 100 µM (inactive) | > 100 µM (inactive) | > 100 µM (inactive) | > 100 µM (inactive) | > 100 µM (inactive) | – | > 100 µM (inactive) | –
C/C(CC(=O)NCCc1ccccc1)=N\NS(=O)(=O)c1ccc(C)cc1 | > 100 µM (inactive) | > 100 µM (inactive) | > 100 µM (inactive) | – | > 100 µM (inactive) | > 100 µM (inactive) | > 100 µM (inactive) | > 100 µM (inactive) | > 100 µM (inactive)
ClC1=C(Cl)C(Cl)(Cl)c2c3c(c4c(c21)C(Cl)(Cl)C(Cl)=C4Cl)C(Cl)(Cl)C(Cl)=C3Cl | – | > 100 µM (inactive) | > 100 µM (inactive) | – | – | – | > 100 µM (inactive) | > 100 µM (inactive) | –
C/C(C=O)=C1\C(O)C[C@]1(C)C1CC(C)(C)CC1O (stereo partly specified) | > 100 µM (inactive) | 39.1 µM (inactive) | > 100 µM (inactive) | – | > 100 µM (inactive) | > 100 µM (inactive) | – | 57.1 µM (inactive) | –
Oc1ncc(N(CCCl)CCCl)c(O)n1 [URACIL MUSTARD] | 78.3 µM (inactive) | 14 µM (inactive) | 4.55 µM (inactive) | 51.6 µM (inactive) | 63.2 µM (inactive) | 79.6 µM (inactive) | 23 µM (inactive) | 71.4 µM (inactive) | –
CN(C)c1ccc(N=O)c(O)c1.CN(C)c1ccc(N=O)c(O)c1.[SiH4] | 8.28 µM (inactive) | 3.72 µM (inactive) | – | 12.1 µM (inactive) | 5.56 µM (inactive) | – | 9.4 µM (inactive) | 5.64 µM (inactive) | –
CCSc1nc(-c2ccc(OC)cc2)c(C#N)c(=O)n1C1OCC(OC(C)=O)C(OC(C)=O)C1OC(C)=O (stereo unspecified) | > 100 µM (inactive) | 72.4 µM (inactive) | > 100 µM (inactive) | 30 µM (inactive) | > 100 µM (inactive) | > 100 µM (inactive) | – | 44.6 µM (inactive) | –
OCCCc1cnco1 | > 100 µM (inactive) | – | > 100 µM (inactive) | > 100 µM (inactive) | > 100 µM (inactive) | > 100 µM (inactive) | > 100 µM (inactive) | > 100 µM (inactive) | –
COc1cc(/C=C2/C(=O)N(C(=O)OCc3ccccc3)C(Cc3cc(OC)c(OC)c(C)c3OC)C(=O)N2Cc2ccccc2)c(OC)c(C)c1OC (stereo unspecified) | > 100 µM (inactive) | 54.6 µM (inactive) | 40.6 µM (inactive) | 95.3 µM (inactive) | 69.7 µM (inactive) | – | – | 9.42 µM (inactive) | > 100 µM (inactive)
O=Cc1cc2c(s1)C(=O)c1sccc1C2=O | 0.351 µM (active) | 0.188 µM (active) | 0.168 µM (active) | 0.183 µM (active) | 0.0237 µM (active) | 1.41 µM (inactive) | 1.26 µM (inactive) | 0.2 µM (active) | –
O=C(/C=C/c1ccccc1F)C(c1ccccc1)c1ccccc1 | 3.24 µM (inactive) | – | 3.85 µM (inactive) | – | – | 5.93 µM (inactive) | 1.99 µM (inactive) | 3.37 µM (inactive) | –
COC1=CC(O)(CC(N)=O)c2ccccc2C1=O (stereo unspecified) | > 100 µM (inactive) | > 100 µM (inactive) | > 100 µM (inactive) | > 100 µM (inactive) | > 100 µM (inactive) | > 100 µM (inactive) | > 100 µM (inactive) | > 100 µM (inactive) | > 100 µM (inactive)
O=C1CCCCC1CN1CCCC1 (stereo unspecified) | > 100 µM (inactive) | > 100 µM (inactive) | > 100 µM (inactive) | – | > 100 µM (inactive) | > 100 µM (inactive) | > 100 µM (inactive) | > 100 µM (inactive) | –
Nc1ccc(C(=O)NN2C(=O)C(Cl)C2c2ccccc2)cc1 (stereo unspecified) | > 100 µM (inactive) | > 100 µM (inactive) | > 100 µM (inactive) | – | > 100 µM (inactive) | > 100 µM (inactive) | > 100 µM (inactive) | > 100 µM (inactive) | –
Cc1ccc(Sc2cc([N+](=O)[O-])cc(Sc3ccc(C)cc3)c2Sc2ccc(C)cc2)cc1 | > 100 µM (inactive) | > 100 µM (inactive) | > 100 µM (inactive) | – | > 100 µM (inactive) | > 100 µM (inactive) | > 100 µM (inactive) | > 100 µM (inactive) | –
COc1cc2c(cc1OC)C(C#N)(Cc1ccccc1)N(C(=O)c1ccccc1)C=C2 (stereo unspecified) | – | 17.6 µM (inactive) | 60.7 µM (inactive) | > 100 µM (inactive) | 96.6 µM (inactive) | > 100 µM (inactive) | 8.15 µM (inactive) | 39.4 µM (inactive) | 45.3 µM (inactive)
CC(=O)NC(CCCCNC(=O)OCc1ccccc1)C(=O)NCc1ccccc1 (stereo unspecified) | > 100 µM (inactive) | > 100 µM (inactive) | > 100 µM (inactive) | – | > 100 µM (inactive) | 88.9 µM (inactive) | > 100 µM (inactive) | > 100 µM (inactive) | –
